Measured values as given in patent publication EP2353599A1, “8-hydroxyquinolines as inhibitors of cathepsin B” (University of Ljubljana, priority 2010, dated 2011).

Tested on: MCF-10A neoT cells
Assay: Intracellular DQ-collagen IV degradation by flow cytometry
Assay type: cell-based
Settings: 50 µM, shift in fluorescence intensity
Description: Inhibition of intracellular DQ-collagen IV degradation was observed by flow cytometry by a shift in fluorescence intensity. 5 × 10^4 MCF-10A neoT cells in complete medium were plated into the wells of a 24-well plate and allowed to attach over night. Afterwards, the medium was replaced with 500 µl of serum free medium with 5-nitro-8-hydroxyquinoline, CA-074 or CA-074Me (50 µM). After 2 h incubation the medium was again replaced with serum free medium containing inhibitors (50 µM) and DQ-collagen IV (5 µg/ml). DMSO was used as a control. For the experiment only viable cells were selected using propidium iodide. The measurements were performed on a FACS Calibur instrument (Beckton Dickinson, Inc.).

O=[N+]([O-])c1ccc(O)c2ncccc12 [Compound 1, 5-nitro-8-hydroxyquinoline]
inhibition of intracellular DQ-collagen IV degradation: significantly inhibits
